Test results taken from ChEMBL document CHEMBL5500409, “Discovery of 5-(Piperidin-4-yl)-1,2,4-oxadiazole Derivatives as a New Class of Human Caseinolytic Protease P Agonists for the Treatment of Hepatocellular Carcinoma” (J Med Chem, 2024).

Assays:
[1] = tested on: HCCLM3; experiment: cells; conditions: Homo sapiens, HCCLM3, 72 h
Description: Antiproliferative activity against human HCCLM3 cells assessed as inhibition of cell proliferation measured after 72 hrs by MTT assay

[2] = target: T1, ATP-dependent Clp protease proteolytic subunit, mitochondrial (Homo sapiens, UniProt Q16740); experiment: Agonist activity at human ClpP using Ac-WLA-AMC as substrate assessed as induction of substrate degradation
[3] = target: T1, ATP-dependent Clp protease proteolytic subunit, mitochondrial; experiment: Agonist activity at N-terminal SUMO tagged human ClpP transfected in Escherichia coli assessed as induction of alpha-casein degradation preincubated for 10 mins followed by alpha-casein addition and measured after 2 hrs by brilliant blue staining based SDS-PAGE analysis
[4] = tested on: HCCLM3; experiment: cells; conditions: Homo sapiens, HCCLM3, 72 h, read-out: INH
Description: Antiproliferative activity against human HCCLM3 cells assessed as inhibition of cell proliferation at 10 uM measured after 72 hrs by MTT assay relative to control

[5] = tested on: HCCLM3; experiment: Antitumor activity against human HCCLM3 cells xenografted in female Balb/c nude mouse assessed as tumor growth inhibition at 20 mg/kg, ip tumor inoculated for 5 days followed by compound administration every 2 days for 4 weeks relative to control; conditions: HCCLM3, 672 h, read-out: TGI

T1 sequence (Q16740 whole entry): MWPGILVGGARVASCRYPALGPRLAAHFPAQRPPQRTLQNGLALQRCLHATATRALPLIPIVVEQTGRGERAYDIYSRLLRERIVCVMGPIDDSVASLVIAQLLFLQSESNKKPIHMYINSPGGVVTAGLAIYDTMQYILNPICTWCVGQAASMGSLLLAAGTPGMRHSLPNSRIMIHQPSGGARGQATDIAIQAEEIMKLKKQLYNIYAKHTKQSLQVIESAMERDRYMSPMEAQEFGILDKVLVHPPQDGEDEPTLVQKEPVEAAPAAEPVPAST

Row | IC50 [1] | Structure (SMILES) | inhibition at 10 µM [4] | other results
1 | 66.4 µM | O=C(c1ccc(F)cc1)N1CCC[C@H](c2nc(-c3ccc(F)cc3)no2)C1 | – | EC50 [2]: 1.2 µM; EC50 [3]: 29.7 µM
2 | 3.7 µM | N#Cc1cccc(CN2CCC(c3nc(Cc4ccc(F)c(Br)c4)no3)CC2)c1 | 83.2% | –
3 | – | N#Cc1cccc(CN2CCC(c3nc(Cc4cc(F)cc(F)c4)no3)CC2)c1 | 46.4% | –
4 | 6.4 µM | N#Cc1cccc(CN2CCC(c3nc(Cc4ccc(Br)c(F)c4)no3)CC2)c1 | 74.4% | –
5 | 9.3 µM | N#Cc1cccc(CN2CCC(c3nc(Cc4ccc(Cl)cc4F)no3)CC2)c1 | 55.9% | –
6 | – | O=C(c1ccc(F)cc1)N1CCC[C@@H](c2nc(-c3ccc(F)cc3)no2)C1 | 17.8% | –
7 | – | O=S(=O)(NCCc1nc(Cc2ccc(F)cc2)no1)c1ccc(F)cc1 | 13.2% | –
8 | – | O=C(Cc1ccc(F)cc1)N1CC(c2nc(Cc3ccc(F)cc3)no2)C1 | 11.5% | –
9 | 4.8 µM | N#Cc1cccc(CN2CCC(c3nc(Cc4cc(F)c(F)c(F)c4)no3)CC2)c1 | 80.9% | –
10 | 9.8 µM | N#Cc1cccc(CN2CCC(c3nc(Cc4cccc(F)c4)no3)CC2)c1 | 50.4% | –
11 | – | N#Cc1cccc(CN2CCC(c3nc(-c4ccc(C(F)(F)F)cc4)no3)CC2)c1 | 19.5% | –
12 | – | N#Cc1cccc(C(=O)N2CCC(c3nc(Cc4ccc(F)cc4)no3)CC2)c1 | 22.4% | –
13 | 7.2 µM | N#Cc1cccc(CN2CCC(c3nc(Cc4cccc(C(F)(F)F)c4)no3)CC2)c1 | 73.6% | –
14 | – | Fc1ccc(Cc2noc(C3CCN(Cc4ccc(C(F)(F)F)cc4)CC3)n2)cc1 | 18.8% | –
15 | – | O=C(c1ccc(F)cc1)N1CC[C@H](c2nc(Cc3ccc(F)cc3)no2)C1 | 6% | –
16 | – | O=C(c1ccc(F)cc1)N1CCC[C@H](c2nc(Cc3ccc(F)cc3)no2)C1 | 9.3% | –
17 | – | N#Cc1cccc(CN2CCC(c3nc(-c4cccc(C(F)(F)F)c4)no3)CC2)c1 | 30.3% | –
18 | – | N#Cc1cccc(CN2CCC(c3nc(Cc4ccc(F)cc4F)no3)CC2)c1 | 36.4% | –
19 | – | N#Cc1cccc(CN2CCC(c3nc(Cc4ccc(Br)cc4F)no3)CC2)c1 | 23.7% | –
20 | – | Cc1ccccc1Cc1noc(C2CCN(Cc3cccc(C#N)c3)CC2)n1 | 12.3% | –
21 | 7.7 µM | N#Cc1cccc(CN2CCC(c3nc(Cc4ccccc4)no3)CC2)c1 | 64.5% | –
22 | – | O=C(c1ccc(F)cc1)N1CCC(c2nc(Cc3ccc(F)cc3)no2)CC1 | 22.1% | –
23 | – | O=C(Cc1ccc(F)cc1)N1CC[C@H](c2nc(Cc3ccc(F)cc3)no2)C1 | 5.8% | –
24 | 5.9 µM | N#Cc1cccc(CN2CCC(c3nc(Cc4ccc(F)cc4)no3)CC2)c1 | 77.5% | –
25 | – | O=C(NCCc1nc(Cc2ccc(F)cc2)no1)c1ccc(C(F)(F)F)cc1 | 15.5% | –
26 | – | Fc1ccc(CN2CCC[C@@H](c3nc(-c4ccc(F)cc4)no3)C2)cc1 | 11% | –
27 | – | O=C(c1ccc(F)cc1)N1CC(c2nc(Cc3ccc(F)cc3)no2)C1 | 23% | –

Row | IC50 [1] | Structure (SMILES) | inhibition at 10 µM [4] | other results
28 | – | O=C(Cc1ccc(F)cc1)N1CCC[C@@H](c2nc(-c3ccc(F)cc3)no2)C1 | 18.3% | –
29 | 6.7 µM | N#Cc1cccc(CN2CCC(c3nc(Cc4ccc(Br)cc4)no3)CC2)c1 | 70% | –
30 | – | Fc1ccc(Cc2noc([C@H]3CCCN3Cc3ccc(F)cc3)n2)cc1 | 32.5% | –
31 | – | Fc1ccc(Cc2noc(C3CCN(Cc4ccccn4)CC3)n2)cc1Cl | 11.1% | –
32 | 7.6 µM | N#Cc1cccc(CN2CCC(c3nc(Cc4ccc(Cl)c(F)c4)no3)CC2)c1 | 71.1% | –
33 | – | Fc1ccc(Cc2noc([C@H]3CCCN3Cc3ccc(C(F)(F)F)cc3)n2)cc1 | 13.3% | –
34 | – | Fc1ccc(Cc2noc(C3CCN(Cc4ccc(F)cc4)CC3)n2)cc1 | 30% | –
35 | – | N#Cc1cccc(CN2CCC(c3nc(Cc4cc(F)ccc4F)no3)CC2)c1 | 12.2% | –
36 | – | N#Cc1cccc(CN2CCC(c3nc(Cc4ccc(F)cc4Cl)no3)CC2)c1 | 10.4% | –
37 | – | N#Cc1cccc(CC(=O)N2CCC(c3nc(Cc4ccc(F)cc4)no3)CC2)c1 | 31.5% | –
38 | – | Fc1ccc(Cc2noc([C@H]3CCCN(Cc4ccc(F)cc4)C3)n2)cc1 | 22.5% | –
39 | 7.9 µM | N#Cc1cccc(CN2CCC(c3nc(Cc4ccccc4F)no3)CC2)c1 | 68.9% | –
40 | 8.9 µM | N#Cc1cccc(CN2CCC(c3nc(Cc4ccc(Cl)cc4)no3)CC2)c1 | 61.5% | –
41 | – | O=C(Cc1ccc(F)cc1)N1CCC[C@H](c2nc(Cc3ccc(F)cc3)no2)C1 | 5.3% | –
42 | 3.7 µM | N#Cc1cccc(CN2CCC(c3nc(Cc4ccc(F)c(F)c4)no3)CC2)c1 | 88.3% | –
43 | 9.2 µM | N#Cc1cccc(CN2CCC(c3nc(Cc4ccc(C(F)(F)F)cc4)no3)CC2)c1 | 56.4% | –
44 | – | N#Cc1cccc(CN2CCC(c3nc(Cc4cccc(F)c4F)no3)CC2)c1 | 11.7% | –
45 | – | N#Cc1cccc(C(=O)NCCc2nc(Cc3ccc(F)cc3)no2)c1 | 16.1% | –
46 | – | N#Cc1cccc(CN2CC(c3nc(Cc4ccc(F)cc4)no3)C2)c1 | 5.9% | –
47 | – | O=C(NCCc1nc(Cc2ccc(F)cc2)no1)c1ccc(F)cc1 | 24.3% | –
48 | – | N#Cc1cccc(CN2CCC[C@@H]2c2nc(Cc3ccc(F)cc3)no2)c1 | 38.8% | –
49 | – | Fc1ccc(Cc2noc(C3CCN(Cc4cccnc4)CC3)n2)cc1Cl | 16.7% | –
50 | – | N#Cc1cccc(CN2CCC(c3nc(Cc4c(F)c(F)c(F)c(F)c4F)no3)CC2)c1 | 12.8% | –
51 | – | Cc1ccc(Cc2noc(C3CCN(Cc4cccc(C#N)c4)CC3)n2)cc1 | 20.6% | –
52 | – | N#Cc1cccc(CN2CCC(c3nc(Cc4ccc(F)cc4Br)no3)CC2)c1 | 12.7% | –
53 | 6.3 µM | CNC(=O)c1cc(Oc2ccc(NC(=O)Nc3ccc(Cl)c(C(F)(F)F)c3)cc2)ccn1 [SORAFENIB] | – | inhibition in vivo at 20 mg/kg [5]: 80.2%
